pEC50, pIC50: −log10 of the molar value. Where only a bound is given, the exact number is not on record here.

The target of data set [1] is T1, Peroxisome proliferator-activated receptor delta (Homo sapiens, UniProt Q03181).
T1 sequence (Q03181 whole entry): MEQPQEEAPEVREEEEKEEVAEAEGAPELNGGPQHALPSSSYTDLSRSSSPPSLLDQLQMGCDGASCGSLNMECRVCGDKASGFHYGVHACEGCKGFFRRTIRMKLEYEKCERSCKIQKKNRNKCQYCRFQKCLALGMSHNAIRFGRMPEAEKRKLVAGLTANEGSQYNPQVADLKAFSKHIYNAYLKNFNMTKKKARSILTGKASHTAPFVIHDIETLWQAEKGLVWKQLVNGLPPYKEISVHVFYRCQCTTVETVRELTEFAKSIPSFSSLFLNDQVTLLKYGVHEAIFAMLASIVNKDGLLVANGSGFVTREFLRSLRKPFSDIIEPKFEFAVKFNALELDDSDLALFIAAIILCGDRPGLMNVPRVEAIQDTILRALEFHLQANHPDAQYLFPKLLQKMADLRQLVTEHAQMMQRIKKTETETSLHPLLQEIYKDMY
The data set is described as follows: Binding affinity to PPARdelta.

The nature of data set [2]: Half life in Sprague-Dawley rat at 0.5 mg, iv and 2.0 mg, po. The format is ADME, organism-based. The following applies: in vivo.
The next data set addresses Cytochrome P450 3A4 (Homo sapiens, UniProt P08684). The data set is described as follows: Inhibition of CYP3A4. The format is ADME.
Data set [3] in a line: Bioavailability in Sprague-Dawley rat at 0.5 mg, iv and 2.0 mg, po. The format is ADME, organism-based. The following applies: in vivo.
Data set [4] has as its target T2, Peroxisome proliferator-activated receptor gamma (Homo sapiens, UniProt P37231).
T2 sequence (P37231 whole entry): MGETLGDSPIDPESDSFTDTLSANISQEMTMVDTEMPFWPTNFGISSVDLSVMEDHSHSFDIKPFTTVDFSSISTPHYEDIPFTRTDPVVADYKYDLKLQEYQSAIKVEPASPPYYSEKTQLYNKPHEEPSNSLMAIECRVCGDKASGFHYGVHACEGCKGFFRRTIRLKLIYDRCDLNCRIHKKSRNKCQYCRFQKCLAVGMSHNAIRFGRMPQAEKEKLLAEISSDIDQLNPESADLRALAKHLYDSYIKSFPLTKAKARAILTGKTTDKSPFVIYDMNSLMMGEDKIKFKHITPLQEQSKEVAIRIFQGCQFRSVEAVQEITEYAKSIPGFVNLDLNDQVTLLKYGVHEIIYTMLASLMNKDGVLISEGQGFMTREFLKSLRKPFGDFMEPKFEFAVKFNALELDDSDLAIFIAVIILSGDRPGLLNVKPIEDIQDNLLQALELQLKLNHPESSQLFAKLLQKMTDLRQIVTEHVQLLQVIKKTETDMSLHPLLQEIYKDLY
The data set is described as follows: Agonist activity at human PPARgamma receptor expressed in african green monkey COS cells after 48 hrs by GAL4 transactivation assay. The format is functional, cell-based.

Data set [5] addresses T3, Peroxisome proliferator-activated receptor alpha (Homo sapiens, UniProt Q07869).
T3 sequence (Q07869 whole entry): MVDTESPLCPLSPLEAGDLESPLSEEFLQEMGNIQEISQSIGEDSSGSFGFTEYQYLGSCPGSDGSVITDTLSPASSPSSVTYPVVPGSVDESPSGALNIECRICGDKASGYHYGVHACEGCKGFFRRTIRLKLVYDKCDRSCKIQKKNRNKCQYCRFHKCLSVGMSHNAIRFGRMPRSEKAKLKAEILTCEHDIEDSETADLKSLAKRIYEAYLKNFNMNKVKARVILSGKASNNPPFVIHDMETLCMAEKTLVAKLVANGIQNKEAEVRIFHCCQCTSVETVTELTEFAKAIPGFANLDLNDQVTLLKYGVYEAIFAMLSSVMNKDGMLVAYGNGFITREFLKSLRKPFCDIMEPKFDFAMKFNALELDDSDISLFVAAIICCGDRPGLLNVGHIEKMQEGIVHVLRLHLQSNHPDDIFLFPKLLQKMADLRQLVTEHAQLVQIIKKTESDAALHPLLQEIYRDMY
The data set is described as follows: Binding affinity to human PPARalpha.

The nature of data set [6]: Clearance in Sprague-Dawley rat at 0.5 mg, iv and 2.0 mg, po. The format is ADME, organism-based. The following applies: in vivo.
For data set [7], the target named is T2, Peroxisome proliferator-activated receptor gamma. The data set is described as follows: Displacement of [3H]2AD-5075 from GST-tagged human PPARgamma receptor expressed in Escherichia coli BL21.
A further data set has as its system Mus musculus. Briefly: Antiglycemic activity in db/db mouse assessed as glucose correction at 10 mg/kg, po administered daily for 11 days. The format is functional.
In data set [8] the target is Alpha-2B adrenergic receptor (Homo sapiens, UniProt P18089). The data set is described as follows: Displacement of radioligand from adrenergic alpha2B receptor.
The next data set addresses D(3) dopamine receptor (Homo sapiens, UniProt P35462). The data set is described as follows: Displacement of radioligand from dopamine D3 receptor.
The target of data set [9] is Prostaglandin D2 receptor (Homo sapiens, UniProt Q13258). The data set is described as follows: Inhibition of prostanoid DP receptor.
The target of another data set is D(1A) dopamine receptor (Homo sapiens, UniProt P21728). The data set is described as follows: Displacement of radioligand from dopamine D1 receptor.
Data set [10] addresses Prostaglandin E2 receptor EP3 subtype (Homo sapiens, UniProt P43115). The data set is described as follows: Inhibition of prostanoid EP3 receptor.
Data set [11] has as its target Polyunsaturated fatty acid 5-lipoxygenase (Homo sapiens, UniProt P09917). Briefly: Inhibition of 5-Lipoxygenase.
For data set [12], the target named is Beta-3 adrenergic receptor (Homo sapiens, UniProt P13945). Briefly: Displacement of radioligand from adrenergic beta3 receptor.
In another data set the target is Thromboxane A2 receptor (Homo sapiens, UniProt P21731). The data set is described as follows: Displacement of radioligand from TXA2 receptor.
Data set [13] has as its target Sodium-dependent noradrenaline transporter (Homo sapiens, UniProt P23975). The data set is described as follows: Displacement of radioligand from NET.
The nature of data set [14]: Inhibition of PDE3.
Data set [15] deals with Delta-type opioid receptor (Homo sapiens, UniProt P41143). The data set is described as follows: Displacement of radioligand from delta opioid receptor.
Data set [16] has as its target Muscarinic acetylcholine receptor M4 (Homo sapiens, UniProt P08173). Briefly: Displacement of radioligand from muscarinic M4 receptor.
In a further data set the target is Mu-type opioid receptor (Homo sapiens, UniProt P35372). Briefly: Displacement of radioligand from mu opioid receptor.
Data set [17] has as its target Alpha-2A adrenergic receptor (Homo sapiens, UniProt P08913). The data set is described as follows: Displacement of radioligand from adrenergic alpha2A receptor.
The target in data set [18] is Kappa-type opioid receptor (Homo sapiens, UniProt P41145). Briefly: Displacement of radioligand from kappa opioid receptor.
The target in a further data set is Substance-K receptor (Homo sapiens, UniProt P21452). Briefly: Displacement of radioligand from tachykinin NK2 receptor.
In data set [19] the target is Sodium-dependent serotonin transporter (Homo sapiens, UniProt P31645). Briefly: Displacement of radioligand from SERT.
The target in data set [20] is Prostaglandin E2 receptor EP4 subtype (Homo sapiens, UniProt P35408). Briefly: Inhibition of prostanoid EP4 receptor.
Data set [21] has as its target Sodium-dependent dopamine transporter (Homo sapiens, UniProt Q01959). Briefly: Displacement of radioligand from DAT.
Data set [22] has as its target Prostaglandin F2-alpha receptor (Homo sapiens, UniProt P43088). Briefly: Inhibition of prostanoid FP receptor.
Data set [23] deals with Beta-1 adrenergic receptor (Homo sapiens, UniProt P08588). The data set is described as follows: Displacement of radioligand from adrenergic beta-1 receptor.
A further data set addresses Prostacyclin receptor (Homo sapiens, UniProt P43119). Briefly: Inhibition of prostanoid IP receptor.
Data set [24] is described as follows: Inhibition of PDE2.
Data set [25] addresses Muscarinic acetylcholine receptor M3 (Homo sapiens, UniProt P20309). The data set is described as follows: Displacement of radioligand from muscarinic M3 receptor.
The target in data set [26] is 5-hydroxytryptamine receptor 2B (Homo sapiens, UniProt P41595). The data set is described as follows: Displacement of radioligand from 5HT2B receptor.
The target in the next data set is D(2) dopamine receptor (Homo sapiens, UniProt P14416). The data set is described as follows: Displacement of radioligand from dopamine D2S receptor.
Sequence of D(2) dopamine receptor (P14416 whole entry): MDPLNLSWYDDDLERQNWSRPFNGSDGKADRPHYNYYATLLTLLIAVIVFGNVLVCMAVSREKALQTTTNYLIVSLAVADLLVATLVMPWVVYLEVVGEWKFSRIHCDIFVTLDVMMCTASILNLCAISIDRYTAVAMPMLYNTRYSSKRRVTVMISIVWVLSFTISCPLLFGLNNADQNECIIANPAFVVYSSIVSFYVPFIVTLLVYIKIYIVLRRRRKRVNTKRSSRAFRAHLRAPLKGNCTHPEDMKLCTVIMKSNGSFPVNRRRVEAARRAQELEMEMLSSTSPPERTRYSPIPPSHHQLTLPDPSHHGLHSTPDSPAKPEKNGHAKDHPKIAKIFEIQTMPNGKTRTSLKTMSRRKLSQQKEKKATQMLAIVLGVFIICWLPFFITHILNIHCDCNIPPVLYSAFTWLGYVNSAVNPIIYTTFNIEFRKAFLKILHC

Sequence of Prostacyclin receptor (P43119 whole entry): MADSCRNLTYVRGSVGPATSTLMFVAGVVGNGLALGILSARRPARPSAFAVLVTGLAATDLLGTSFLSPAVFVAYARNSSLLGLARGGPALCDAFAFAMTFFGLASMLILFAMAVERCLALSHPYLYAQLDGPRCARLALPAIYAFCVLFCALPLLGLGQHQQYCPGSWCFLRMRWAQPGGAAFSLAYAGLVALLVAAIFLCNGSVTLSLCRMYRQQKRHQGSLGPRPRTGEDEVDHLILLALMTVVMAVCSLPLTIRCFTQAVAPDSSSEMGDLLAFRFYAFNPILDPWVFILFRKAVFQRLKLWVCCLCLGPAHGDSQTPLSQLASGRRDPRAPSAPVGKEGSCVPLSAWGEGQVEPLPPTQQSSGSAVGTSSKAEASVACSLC
Sequence of Beta-1 adrenergic receptor (P08588 whole entry): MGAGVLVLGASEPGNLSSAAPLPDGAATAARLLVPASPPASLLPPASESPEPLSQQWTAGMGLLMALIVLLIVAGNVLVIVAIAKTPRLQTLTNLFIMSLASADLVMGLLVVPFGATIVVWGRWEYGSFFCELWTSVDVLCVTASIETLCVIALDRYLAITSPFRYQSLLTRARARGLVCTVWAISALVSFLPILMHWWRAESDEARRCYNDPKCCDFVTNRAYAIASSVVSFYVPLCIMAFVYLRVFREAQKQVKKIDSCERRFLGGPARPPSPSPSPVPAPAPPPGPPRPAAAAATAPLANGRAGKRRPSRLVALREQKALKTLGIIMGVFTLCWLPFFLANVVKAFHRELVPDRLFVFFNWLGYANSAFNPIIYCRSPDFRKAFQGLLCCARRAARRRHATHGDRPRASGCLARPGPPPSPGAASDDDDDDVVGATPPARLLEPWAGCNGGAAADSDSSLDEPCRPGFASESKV
Sequence of Substance-K receptor (P21452 whole entry): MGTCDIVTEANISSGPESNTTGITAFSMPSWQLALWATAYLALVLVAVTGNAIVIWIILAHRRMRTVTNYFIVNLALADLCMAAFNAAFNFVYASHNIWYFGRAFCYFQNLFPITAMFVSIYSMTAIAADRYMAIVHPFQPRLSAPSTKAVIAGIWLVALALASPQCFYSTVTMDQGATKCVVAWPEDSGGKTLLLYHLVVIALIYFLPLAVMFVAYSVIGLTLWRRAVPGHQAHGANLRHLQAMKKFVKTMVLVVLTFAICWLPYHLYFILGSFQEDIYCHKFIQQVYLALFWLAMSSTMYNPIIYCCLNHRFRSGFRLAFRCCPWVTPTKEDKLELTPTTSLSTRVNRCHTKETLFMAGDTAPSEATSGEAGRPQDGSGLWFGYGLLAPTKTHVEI
Sequence of Muscarinic acetylcholine receptor M3 (P20309 whole entry): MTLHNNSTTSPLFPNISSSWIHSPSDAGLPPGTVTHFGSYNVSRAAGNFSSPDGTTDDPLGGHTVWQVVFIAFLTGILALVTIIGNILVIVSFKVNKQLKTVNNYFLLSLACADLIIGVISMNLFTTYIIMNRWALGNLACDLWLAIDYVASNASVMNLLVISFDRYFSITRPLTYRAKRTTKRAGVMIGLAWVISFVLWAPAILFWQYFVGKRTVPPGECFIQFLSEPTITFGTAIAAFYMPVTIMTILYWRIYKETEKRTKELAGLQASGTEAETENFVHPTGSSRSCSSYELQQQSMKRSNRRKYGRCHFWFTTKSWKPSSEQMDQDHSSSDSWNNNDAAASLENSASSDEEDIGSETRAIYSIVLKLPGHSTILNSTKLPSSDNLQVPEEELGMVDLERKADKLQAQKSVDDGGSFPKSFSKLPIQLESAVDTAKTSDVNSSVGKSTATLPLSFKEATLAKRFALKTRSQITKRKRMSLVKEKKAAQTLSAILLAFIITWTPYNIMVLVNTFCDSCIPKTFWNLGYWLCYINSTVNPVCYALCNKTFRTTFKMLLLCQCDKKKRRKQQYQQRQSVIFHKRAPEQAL
Sequence of D(1A) dopamine receptor (P21728 whole entry): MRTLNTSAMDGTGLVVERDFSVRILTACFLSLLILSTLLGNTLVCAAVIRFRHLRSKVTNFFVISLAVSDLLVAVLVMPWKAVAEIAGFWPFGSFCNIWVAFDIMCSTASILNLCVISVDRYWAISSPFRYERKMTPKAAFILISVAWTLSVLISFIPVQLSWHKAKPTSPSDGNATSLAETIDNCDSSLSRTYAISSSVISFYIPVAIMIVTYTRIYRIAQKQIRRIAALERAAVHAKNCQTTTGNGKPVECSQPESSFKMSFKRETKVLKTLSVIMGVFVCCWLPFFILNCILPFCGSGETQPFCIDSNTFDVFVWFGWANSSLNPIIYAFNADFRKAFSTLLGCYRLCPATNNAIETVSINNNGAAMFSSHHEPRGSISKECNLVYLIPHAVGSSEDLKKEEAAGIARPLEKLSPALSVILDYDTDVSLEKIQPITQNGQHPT
Sequence of Prostaglandin E2 receptor EP3 subtype (P43115 whole entry): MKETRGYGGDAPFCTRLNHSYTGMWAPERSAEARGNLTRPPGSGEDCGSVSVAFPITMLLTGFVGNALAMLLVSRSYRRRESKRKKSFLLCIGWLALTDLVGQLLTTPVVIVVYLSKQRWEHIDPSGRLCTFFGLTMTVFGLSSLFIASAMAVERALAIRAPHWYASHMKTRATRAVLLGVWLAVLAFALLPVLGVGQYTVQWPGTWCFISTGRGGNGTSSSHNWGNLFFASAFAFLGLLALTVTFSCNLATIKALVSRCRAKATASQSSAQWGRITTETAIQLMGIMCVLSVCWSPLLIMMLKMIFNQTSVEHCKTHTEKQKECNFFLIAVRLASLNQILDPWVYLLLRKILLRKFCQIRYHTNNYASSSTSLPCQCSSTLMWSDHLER
Sequence of Thromboxane A2 receptor (P21731 whole entry): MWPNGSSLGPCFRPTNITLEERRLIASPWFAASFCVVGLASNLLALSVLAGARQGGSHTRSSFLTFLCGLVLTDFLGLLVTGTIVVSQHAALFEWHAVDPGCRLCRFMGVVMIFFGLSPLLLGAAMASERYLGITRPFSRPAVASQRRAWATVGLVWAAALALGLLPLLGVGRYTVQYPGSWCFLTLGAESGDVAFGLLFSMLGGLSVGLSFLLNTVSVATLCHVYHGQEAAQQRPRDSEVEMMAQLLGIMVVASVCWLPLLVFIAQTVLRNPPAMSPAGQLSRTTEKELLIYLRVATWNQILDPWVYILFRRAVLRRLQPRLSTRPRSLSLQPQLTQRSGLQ
Sequence of Kappa-type opioid receptor (P41145 whole entry): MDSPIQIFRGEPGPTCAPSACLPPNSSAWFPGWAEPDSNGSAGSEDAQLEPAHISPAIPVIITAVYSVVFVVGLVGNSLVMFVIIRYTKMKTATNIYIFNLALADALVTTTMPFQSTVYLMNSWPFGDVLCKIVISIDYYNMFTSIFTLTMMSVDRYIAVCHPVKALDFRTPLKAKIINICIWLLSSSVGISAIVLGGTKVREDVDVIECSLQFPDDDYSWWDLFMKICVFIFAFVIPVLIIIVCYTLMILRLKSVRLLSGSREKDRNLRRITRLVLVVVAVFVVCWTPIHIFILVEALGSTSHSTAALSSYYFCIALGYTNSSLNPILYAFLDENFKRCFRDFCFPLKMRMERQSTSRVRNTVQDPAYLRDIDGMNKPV
Sequence of Prostaglandin F2-alpha receptor (P43088 whole entry): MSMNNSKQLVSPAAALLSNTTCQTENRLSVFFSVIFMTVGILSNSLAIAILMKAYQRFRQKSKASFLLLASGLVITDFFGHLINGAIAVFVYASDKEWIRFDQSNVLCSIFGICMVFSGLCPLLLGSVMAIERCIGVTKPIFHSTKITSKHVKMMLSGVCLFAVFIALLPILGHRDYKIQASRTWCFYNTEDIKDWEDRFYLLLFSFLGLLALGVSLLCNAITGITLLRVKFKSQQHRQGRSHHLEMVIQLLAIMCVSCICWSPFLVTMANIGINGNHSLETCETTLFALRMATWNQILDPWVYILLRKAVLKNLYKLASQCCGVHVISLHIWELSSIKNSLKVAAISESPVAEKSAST
Sequence of Sodium-dependent serotonin transporter (P31645 whole entry): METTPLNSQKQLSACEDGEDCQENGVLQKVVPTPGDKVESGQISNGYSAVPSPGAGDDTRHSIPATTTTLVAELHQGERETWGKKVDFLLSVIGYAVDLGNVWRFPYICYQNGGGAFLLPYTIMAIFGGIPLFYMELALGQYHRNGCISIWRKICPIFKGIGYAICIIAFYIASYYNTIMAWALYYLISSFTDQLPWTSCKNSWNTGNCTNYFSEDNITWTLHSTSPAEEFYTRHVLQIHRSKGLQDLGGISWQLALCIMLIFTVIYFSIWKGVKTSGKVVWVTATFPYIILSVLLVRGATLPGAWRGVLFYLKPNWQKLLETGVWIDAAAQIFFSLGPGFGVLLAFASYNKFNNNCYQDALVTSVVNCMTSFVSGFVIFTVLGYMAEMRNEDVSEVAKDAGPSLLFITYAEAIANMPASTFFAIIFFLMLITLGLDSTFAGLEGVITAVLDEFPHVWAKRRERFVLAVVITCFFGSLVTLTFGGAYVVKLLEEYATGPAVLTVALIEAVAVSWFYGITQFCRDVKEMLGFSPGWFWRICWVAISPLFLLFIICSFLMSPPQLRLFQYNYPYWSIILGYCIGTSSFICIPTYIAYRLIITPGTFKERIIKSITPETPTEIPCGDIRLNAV

As to `COc1ccc(C(=O)c2c(C)n(Cc3cccc(O[C@@H](C)C(=O)O)c3)c3ncccc23)cc1`, the pIC50 in data set [1] is below 4.30; at Cytochrome P450 3A4, below 4.00; in [5] it was below 4.30; in data set [7] it was 7.18. Moreover, in data set [2], the half-life is 2 h. Besides, the bioavailability in data set [3] amounted to 29%. The compound also showed a pEC50 in data set [4] of 7.57. The compound further had a clearance in data set [6] of 115 mL/min/kg. Moreover, the Activity in the data set on Mus musculus came to 29%.
As for `Cc1c(C(=O)c2ccc(Cl)cc2)c2ccc(OC(F)(F)F)cc2n1Cc1cccc(O[C@H](C)C(=O)O)c1`, the pIC50 was 6.11 in data set [8]; 6.08 on D(3) dopamine receptor; 5.07 in [9]; 5.82 at D(1A) dopamine receptor; 5.91 in data set [10]; 5.79 in data set [11]. In addition, the pIC50 in data set [12] was 5.31; on Thromboxane A2 receptor, 5.69; in data set [13], 5.67; in data set [14], 4.65; in data set [15], 5.77; in data set [16] it was 5.87. Moreover, the pIC50 is 5.73 at Mu-type opioid receptor; 5.78 in [17]; 5.46 in [18]; 6.28 at Substance-K receptor; 6.01 in data set [19]; 5.43 in data set [20]. The negative logarithm of the IC50 (pIC50) in data set [21] is 5.47; in data set [22], 5.56; in [23], 5.39; against Prostacyclin receptor, 5.20; in data set [24], 4.54; in data set [25] it was 5.81. Also, the values for the pIC50 (in data set [26]; at D(2) dopamine receptor) were 5.94 and 5.45, respectively.

As usually defined, the pIC50 is −log10 of the IC50, conventionally taken in molar units. Broadly, the half-life is the time needed for the level to fall by half in the phase considered. One may read the bioavailability as the share of a dose that reaches the circulation, judged against a reference dose that is usually intravenous. The term pEC50 denotes −log10 of the EC50, conventionally taken in molar units.

These data come from ChEMBL document CHEMBL1139415, “Highly functionalized 7-azaindoles as selective PPAR gamma modulators” (Bioorg Med Chem Lett, 2008).
